We go through 2 molecules from patent US10160812B2, “Bispecific HER2 antibodies” (MedImmune, LLC, priority 2014, dated 2018).

For one experiment, the system named is NCI-N87 cell. Briefly: Proliferation inhibition assay in serum-containing media. Type of experiment: cell-based, human. As to the method:
Cell viability was determined using Cell Titer Glo from Promega according to manufacturer's instructions.

The target in a further experiment is HER2 (Homo sapiens, UniProt P04626). Particulars: reported value; read-out: reported affinity of the parent antibody; cited from earlier work.

As to “pertuzumab: humanized version of the murine antibody 2C4 that inhibits dimerization of HER2 with other HER receptors [reference compound]”, the “inhibition of cell proliferation” value with NCI-N87 cell is given as “limited activity”.

B1: 1.39.1: fully human monoclonal antibody against human HER2, parent of 39S (WO 2008/019290); VH SEQ ID NO:43, VL SEQ ID NO:44 (antibody, V domains shown)
VH: EVQLVESGGGLVKPGGSLRLSCAASGFTFSSYSMNWVRQAPGKGLEWVSSISSSSSYIYYADSVKGRFTISRDNAKNSLYLQMNSLRAEDTAVYYCARGGDGYNYYYFDYWGQGTLVTVSS
VL: DIVMTQSPDSLAVSLGERATITCKSSQSVFFRSNNKNCLAWYQQRPGQPPNLLIYWASSRESGVPDRFSGSGSGTDFALTISSLQTEDVAVYYCQQYFGSPFTFGPGTKVDIK
Consider B1, for which the Kd with HER2 is approximately 2 nM.
